Data on eight molecules can be found in PubChem BioAssay (NCI).

The structures appear in SMILES notation.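 All cell lines were grown in 96-well plates and treated with compound for 48 hours. GI50 is the concentration that inhibits growth by half. Definition used: TGI = concentration required for complete inhibition of growth.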

Some test systems named below: MDA-MB-435; SR leukemia; ACHN renal; PC-3 prostate; SNB-75 CNS; HS 578T breast; NCI-H460 lung; MDA-MB-231 breast; OVCAR-3 ovarian; SF-268 CNS.
What all share (experiment): DTP human tumour cell line panel, 48 h

One may read the TGI as the concentration giving total growth inhibition. A lower TGI goes with more potent growth arrest. Regarding `CNC(=O)OCc1nc(SC)n(C)c1COC(=O)NC`, the TGI came to 327 µM in the experiment on MDA-MB-435; 473 µM in the experiment on SR leukemia; 361 µM in the experiment with ACHN renal; 484 µM with PC-3 prostate; 349 µM in the experiment on SNB-75 CNS; 438 µM in the experiment with HS 578T breast. For the same molecule, the TGI was determined as 264 µM with NCI-H460 lung, 430 µM with MDA-MB-231 breast, 444 µM with OVCAR-3 ovarian and 450 µM in the experiment on SF-268 CNS.

A word on the GI50: it is the concentration that inhibits growth by half. Turning to `O=[N+]([O-])/C=C/c1ccc(Cl)cc1[N+](=O)[O-]`, the GI50 with MDA-MB-435 is 3.62 µM; with SR leukemia it was 1.68 µM; in the experiment with ACHN renal, 1.95 µM; in the experiment with PC-3 prostate it was 2.54 µM; in the experiment with SNB-75 CNS, 3.79 µM; in the experiment on HS 578T breast it was 8.16 µM. The figures for the GI50 in the experiment on NCI-H460 lung, in the experiment on MDA-MB-231 breast and in the experiment with SF-268 CNS were 3.42 µM, 2.33 µM and 3.34 µM, respectively. The total growth inhibition concentration (TGI) in the experiment with MDA-MB-435 was 16.1 µM; with SR leukemia it was above 100 µM; with ACHN renal it was 3.79 µM; in the experiment with PC-3 prostate it was 8.34 µM; in the experiment with SNB-75 CNS it was 15.9 µM; in the experiment with HS 578T breast it was above 100 µM. In addition, the TGI was 33.5 µM with NCI-H460 lung, 6.46 µM in the experiment on MDA-MB-231 breast and above 100 µM in the experiment on SF-268 CNS.

In the case of `CSC1=Nc2c(c(C)c(-c3ccccc3)n2COC(CO)CO)C2=NC(=O)CC(C)N12` (stereo not given), the GI50 is above 100 µM with MDA-MB-435; above 100 µM in the experiment with SR leukemia; above 100 µM in the experiment on ACHN renal; above 100 µM with PC-3 prostate; 85.3 µM with SNB-75 CNS; above 100 µM in the experiment on HS 578T breast. Also, the GI50 in the experiment on NCI-H460 lung, with MDA-MB-231 breast, in the experiment on OVCAR-3 ovarian and in the experiment with SF-268 CNS was above 100 µM throughout. Moreover, the concentration for total growth inhibition (TGI) with MDA-MB-435, in the experiment with SR leukemia, in the experiment on ACHN renal, in the experiment with PC-3 prostate, in the experiment with SNB-75 CNS and in the experiment on HS 578T breast was above 100 µM throughout. For the same molecule, the concentration for total growth inhibition (TGI) in the experiment on NCI-H460 lung, in the experiment on MDA-MB-231 breast, with OVCAR-3 ovarian and in the experiment on SF-268 CNS was above 100 µM each time.

Consider `COc1ccc(/C=C/C(=O)c2cc3c(N)c(C(=O)Nc4ccc(OC)cc4)sc3nc2C)cc1`, for which the GI50 with MDA-MB-435 is 0.0189 µM; in the experiment with SR leukemia, 0.889 µM; with ACHN renal it was 0.397 µM; with PC-3 prostate, 0.434 µM; in the experiment on SNB-75 CNS, 0.344 µM; with HS 578T breast, 0.211 µM. Also, the GI50 is 0.155 µM in the experiment with NCI-H460 lung, 1.28 µM in the experiment on MDA-MB-231 breast, 0.0276 µM with OVCAR-3 ovarian and 2.02 µM in the experiment with SF-268 CNS. In addition, the total growth inhibition concentration (TGI) in the experiment on MDA-MB-435 was 0.0777 µM; in the experiment on SR leukemia, above 50 µM; in the experiment on ACHN renal, above 50 µM; in the experiment on PC-3 prostate, above 50 µM; with SNB-75 CNS, 2.21 µM; in the experiment with HS 578T breast it was above 11.8 µM. The total growth inhibition concentration (TGI) was 0.484 µM with NCI-H460 lung, 22 µM with MDA-MB-231 breast, 1.96 µM in the experiment on OVCAR-3 ovarian and above 50 µM in the experiment on SF-268 CNS.

Consider `CC(=O)Oc1cc2cnc3c4cc(OC(C)=O)c(OC(C)=O)cc4ccc3c2cc1OC(C)=O`, for which the GI50 was 0.506 µM in the experiment on MDA-MB-435; 0.629 µM in the experiment with SR leukemia; 1.19 µM in the experiment on ACHN renal; 3.27 µM with PC-3 prostate; 0.25 µM with SNB-75 CNS; 1.01 µM with HS 578T breast. Besides, the GI50 in the experiment with NCI-H460 lung was 0.569 µM; in the experiment on MDA-MB-231 breast, 1.02 µM; in the experiment with OVCAR-3 ovarian, 1.01 µM; with SF-268 CNS, 1.22 µM. The TGI in the experiment with MDA-MB-435 is above 100 µM; with SR leukemia it was above 100 µM; in the experiment with ACHN renal, above 100 µM; in the experiment on PC-3 prostate, above 100 µM; in the experiment on SNB-75 CNS, 7.7 µM; in the experiment on HS 578T breast, 9.56 µM. Moreover, the TGI in the experiment on NCI-H460 lung was above 100 µM; with MDA-MB-231 breast, above 100 µM; in the experiment on OVCAR-3 ovarian, 9.5 µM; in the experiment on SF-268 CNS it was 17.6 µM.

On to `O=c1[nH]cnc2n[nH]nc12`, for which the GI50 in the experiment on MDA-MB-435 is 0.448 µM; with PC-3 prostate it was 5.99 µM; in the experiment with HS 578T breast it was 6.11 µM; in the experiment on MDA-MB-231 breast, 1.67 µM. In addition, the total growth inhibition concentration (TGI) in the experiment on MDA-MB-435 was above 100 µM; in the experiment with SR leukemia it was above 52.7 µM; in the experiment on ACHN renal, above 100 µM; in the experiment on PC-3 prostate it was above 100 µM; in the experiment with SNB-75 CNS, above 69.8 µM; in the experiment with HS 578T breast, above 100 µM. Moreover, the TGI in the experiment with NCI-H460 lung is above 69.7 µM; in the experiment on MDA-MB-231 breast, above 100 µM; with OVCAR-3 ovarian, 63.8 µM; in the experiment with SF-268 CNS it was above 94.3 µM.

Take `O=C1Nc2ccc3c(c2/C1=C\c1cc2c(cc1Br)OCO2)OCO3`: the concentration for 50% growth inhibition (GI50) in the experiment with MDA-MB-435 was 0.106 µM; in the experiment with SR leukemia, 0.239 µM; in the experiment with ACHN renal it was 0.689 µM; in the experiment on PC-3 prostate, 0.338 µM; in the experiment with SNB-75 CNS it was 0.189 µM; in the experiment with HS 578T breast, 0.376 µM. In addition, the GI50 in the experiment on NCI-H460 lung was 0.35 µM; with MDA-MB-231 breast, 0.793 µM; with OVCAR-3 ovarian, 0.217 µM; in the experiment on SF-268 CNS, 0.524 µM. Besides, the TGI is 0.305 µM in the experiment with MDA-MB-435; above 30.8 µM with SR leukemia; 6.55 µM with ACHN renal; 2.8 µM with PC-3 prostate; 1.41 µM with SNB-75 CNS; 2.11 µM in the experiment on HS 578T breast. Also, the TGI in the experiment on NCI-H460 lung was determined as 1.35 µM; in the experiment with MDA-MB-231 breast, 3.27 µM; with OVCAR-3 ovarian, 0.589 µM; in the experiment on SF-268 CNS it was 3.28 µM.

Turning to `COc1ccc(-c2csc(Nc3cccc(-c4csc(C)n4)c3)n2)cc1`, the GI50 with MDA-MB-435 is 0.366 µM; in the experiment on SR leukemia, 0.0878 µM; in the experiment with ACHN renal, 0.859 µM; in the experiment with PC-3 prostate, 1.97 µM; in the experiment on HS 578T breast it was 4.68 µM; in the experiment on NCI-H460 lung it was 0.354 µM. In addition, the GI50 is 0.824 µM with MDA-MB-231 breast, 0.489 µM with OVCAR-3 ovarian and 2.48 µM with SF-268 CNS. For the same molecule, the total growth inhibition concentration (TGI) in the experiment with MDA-MB-435 was 1.02 µM; in the experiment on SR leukemia, 0.27 µM; in the experiment with ACHN renal, 18.6 µM; in the experiment on PC-3 prostate it was above 50 µM; with HS 578T breast, above 37.9 µM; in the experiment with NCI-H460 lung, above 19.3 µM. Moreover, the results for the TGI in the experiment on MDA-MB-231 breast, in the experiment with OVCAR-3 ovarian and in the experiment on SF-268 CNS were 4.52 µM, above 10.8 µM and above 50 µM, respectively.
